This passage reports IC50 and inhibition in vivo results from patent US4755594A, “N^6 -substituted adenosines” (Warner-Lambert Company, priority 1986, dated 1988).

The target in one assay is T1, adenosine A2 receptor (Rattus norvegicus, UniProt P30543).
T1 construct: Brains were thawed and then kept on ice while the striata were dissected out; tissue Pel-Freez (Rogers, Ark.); host or cells: striata of Sprague-Dawley rats (Long-Evans hooded rats gave essentially identical results)
Nature of the assay: Adenosine Receptor Binding--A2 Receptor Affinity (RBA2), [3H]NECA, striatal membranes. The note with it: read-out: RBA-2 IC50. How it is done: Adenosine Receptor Binding--A2 Receptor Affinity (RBA2)
Brains from 200-500 g mixed sex Sprague-Dawley rats were purchased from Pel-Freez (Rogers, Ark.). Fresh brains from male Long-Evans hooded rats (Blue Spruce Farms, Altamont, NY) gave essentially identical results. Brains were thawed and then kept on ice while the striata were dissected out. Striata were disrupted in 10 vol of ice-cold 50 mM Tris.HCl (pH 7.7 at 25° C., pH 8.26 at 5° C.) (Tris) for 30 seconds in a Polytron PT-10 (Brinkmann) at setting 5. The suspension was centrifuged at 50,000 xg for ten minutes, the supernatant discarded, the pellet resuspended in 10 vol ice-cold Tris as above, recentrifuged, resuspended at 1 g/5ml, and stored in plastic vials at -70° C. (stable for at least six months). When needed, tissue was thawed at room temperature, disrupted in a Polytron, and kept on ice until used.
All incubations were for 60 minutes at 25° C. in 12×75 mm glass tubes containing 1 ml Tris with 5 mg original tissue weight of rat weight of rat striatal membranes, 4 nM [^3 H]--N-ethyl adenosine-5'-carboxamide ([^3 H]NECA), 50 nM N^6 -cyclopentyladenosine (to eliminate A1 receptor binding), 10 mM MgCl2, 0.1 units/ml of adenosine deaminase and 1% dimethylsulfoxide. N^6 -Cyclopentyladenosine was dissolved at 10 mM in 0.02N HCl and diluted in Tris. Stock solutions and dilutions of N^6 -cyclopentyladenosine could be stored at -20° C. for several months. Test compounds were dissolved at 10 mM in dimethylsulfoxide on the same day as the experiment, and diluted in dimethylsulfoxide to 100×the final incubation concentration. Control incubations received an equal volume (10 μl) of dimethylsulfoxide; the resulting concentration of dimethylsulfoxide had no effect on binding. [^3 H]NECA was diluted to 40 nM in Tris. The membrane suspension (5 mg/0.79 ml) contained sufficient MgCl2 and adenosine deaminase to give 10 mM and 0.1 units/ml, respectively, final concentration in the incubation. […] After all additions, the rack of tubes was vortexed, and the tubes were then incubated for 60 min at 25° C. in a shaking water bath. The rack of tubes was vortexed an additional time halfway through the incubation.
Incubations were terminated by filtration through 2.4 cm GF/B filters under reduced pressure. Each tube was filtered as follows: the contents of the tube were poured on the filter, 4 ml of ice-cold Tris were added to the tube and the contents poured onto the filter, and the filter was washed twice with 4 ml of ice-cold Tris. The filtration was complete in about twelve seconds. Filters were put in scintillation vials, 8 ml of Formula 947 scintillation fluid added, and the vials left overnight, shaken, and counted in a liquid scintillation counter at 40% efficiency.
Nonspecific binding was defined as binding in the presence of 100 μM N^6 -cyclopentyladenosine, and specific binding was defined as total binding minus nonspecific binding. The IC50 was calculated by weighted nonlinear least squares curve-fitting to the mass-action equation. [formula] where Y is cpm bound
T is cpm total binding without drug
S is cpm specific binding without drug
D is the concentration of drug and
K is the IC50 of the drug
Weighting factors were calculated under the assumption that the standard deviation was proportional to the predicted value of Y. Nonspecific binding was treated as a very large (infinite) concentration of drug in the computer analysis.

The nature of assay [1]: Mouse Activity and Screen Test Procedure (MAST): inhibition of spontaneous locomotion. Type of assay: in vivo, Swiss-Webster male mice. The note with it: IP, 1 h, read-out: Inhibition of motor activity. The text has this: The compounds of the invention are new chemical substances which are useful as pharmaceutical agents for the treatment of psychoses. The antipsychotic activity of representative compounds of the invention was established by the Mouse Activity and Screen Test Procedure (MAST) described below. Animals Nine unfasted Swiss-Webster male mice weighing 20-30 g are equally divided into three groups for each drug dose to be tested. That is, data for each dose level was generated by three separate groups of three mice each. Drugs A minimum of three dose levels (10, 30, and 100 mg/kg) are tested for each drug. Treatments are administered intraperitoneally one hour prior to testing. All dosages are calculated as parent compound and given in volumes of 10 ml/kg. Compounds are dissolved or suspended in 0.2% Methocel. Control animals are injected with Methocel. Testing A two part testing procedure is started one hour postinjection. First, the screen test (ST) is performed (see Pharmac. Biochem. Behav. 6, 351-353, 1977). Briefly this test consists of placing mice on individual wire screens which are then rotated 180 degrees at the start of a 60 second observation period. The number of mice falling off the inverted screen is recorded. Immediately following the screen test, the final phase of testing is initiated by placing each group of three mice in one actophotometer (Life Sciences, 22, 1067-1076, 1978). The actophotometer consists of a cylindrical chamber whose center is occupied by another cylinder which contains the illumination for six photocells located on the perimeter of the chamber. Six light-beam interruptions equal one count. Locomotor activity is recorded by computer at ten minute intervals for 60 minutes. Data The data obtained from the screen test are expressed as percent of mice falling off the screen. Data derived from locomotor activity of drug treated mice are compared to the activity of vehicle treated animals and are expressed as percent inhibition of spontaneous locomotion. All percentages reported for inhibition of locomotion (LI) are based upon data accumulated for one hour. Both phases of testing are graded: A=60-100%; C=31-59%; and N=0-30%. An overall dose rating is obtained by the following criteria: […]

T1 sequence (P30543 whole entry): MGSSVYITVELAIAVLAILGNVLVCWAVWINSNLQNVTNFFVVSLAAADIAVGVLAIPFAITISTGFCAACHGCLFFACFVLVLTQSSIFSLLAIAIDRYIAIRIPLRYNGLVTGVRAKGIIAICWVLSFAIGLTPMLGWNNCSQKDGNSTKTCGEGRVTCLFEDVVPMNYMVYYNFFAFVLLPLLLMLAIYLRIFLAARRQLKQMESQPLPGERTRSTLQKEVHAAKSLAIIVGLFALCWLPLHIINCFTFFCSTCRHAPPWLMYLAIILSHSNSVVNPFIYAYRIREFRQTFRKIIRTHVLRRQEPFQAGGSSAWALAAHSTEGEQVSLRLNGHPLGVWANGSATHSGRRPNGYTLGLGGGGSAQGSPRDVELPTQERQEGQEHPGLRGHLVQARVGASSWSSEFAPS

Turning to `O[C@@H]1[C@H](O)[C@@H](CCl)O[C@H]1n1cnc2c(NCC3(c4cccs4)CC3)ncnc21` [Example 6, 5'-Chloro-5'-deoxy-N6-((1-thien-2-ylcyclopropyl)methyl)adenosine], the IC50 at adenosine A2 receptor turned out to be 0.067 µM. Besides, in assay [1], the inhibition in vivo at 3 mg/kg amounted to 11%, the inhibition in vivo at 10 mg/kg is 16% and the inhibition in vivo at 30 mg/kg is 51%.
For `OC[C@H]1O[C@@H](n2cnc3c(NCC4(c5ccc(Cl)cc5)CC4)ncnc32)[C@H](O)[C@@H]1O` [Example 12, N6-((1-(4-Chlorophenyl)cyclopropyl)methyl)adenosine] the same measures were 1.2 µM, -4%, 5% and 20%.
Take `OC[C@H]1O[C@@H](n2cnc3c(NCC4(c5cccs5)CC4)ncnc32)[C@H](O)[C@@H]1O` [Example 3, N6-((1-Thien-2-ylcyclopropyl)methyl)adenosine]: the IC50 at adenosine A2 receptor was 0.0086 µM. Also, the inhibition in vivo at 0.03 mg/kg in assay [1] (0.03 mg/kg) was found to be 17%. In assay [1] (0.1 mg/kg), the inhibition in vivo at 0.1 mg/kg was found to be 40%. In assay [1], the inhibition in vivo at 0.3 mg/kg stood at 70%, the inhibition in vivo at 1 mg/kg was determined as 85%, the inhibition in vivo at 3 mg/kg stood at 89% and the inhibition in vivo at 10 mg/kg worked out at 93%.
`OC[C@H]1O[C@@H](n2cnc3c(NCC4(c5cccc(Cl)c5)CC4)ncnc32)[C@H](O)[C@@H]1O` [Example 2, N6-((1-(3-Chlorophenyl)cyclopropyl)methyl)adenosine]: on adenosine A2 receptor, the IC50 came to 0.2 µM. Further, in assay [1], the inhibition in vivo at 3 mg/kg turned out to be 19%, the inhibition in vivo at 10 mg/kg amounted to 69% and the inhibition in vivo at 30 mg/kg was found to be 90%.
With `OC[C@H]1O[C@@H](n2cnc3c(NCC4(c5ccccc5)CCCC4)ncnc32)[C@H](O)[C@@H]1O` [Example 10, N6-((1-Phenylcyclopentyl)methyl)adenosine], at adenosine A2 receptor, the IC50 stood at 0.46 µM. Further, in assay [1], the inhibition in vivo at 3 mg/kg was -7%, the inhibition in vivo at 10 mg/kg is 12% and the inhibition in vivo at 30 mg/kg is 49%.
For `OC[C@H]1O[C@@H](n2cnc3c(NCC4(c5cccc(Cl)c5)CCC4)ncnc32)[C@H](O)[C@@H]1O` [Example 8, N6-((1-(3-Chlorophenyl)cyclobutyl)methyl)adenosine] the same measures were 0.32 µM, 22%, 35% and 73%.
In the same order, the values of `OC[C@H]1O[C@@H](n2cnc3c(NCC4(c5ccccc5)CCCCC4)ncnc32)[C@H](O)[C@@H]1O` [Example 11, N6-((1-Phenylcyclohexyl)methyl)adenosine] are 3.2 µM, 15%, -10% and 34%.
As to `OC[C@H]1O[C@@H](n2cnc3c(NCC4(c5ccccc5)CC4)ncnc32)[C@H](O)[C@@H]1O` [Example 1, N6-((1-Phenylcyclopropyl)methyl)adenosine], the IC50 at adenosine A2 receptor is 0.08 µM. Also, in assay [1], the inhibition in vivo at 0.3 mg/kg worked out at 43%, the inhibition in vivo at 1 mg/kg is 48%, the inhibition in vivo at 3 mg/kg is 38% and the inhibition in vivo at 10 mg/kg is 92%. Further, the inhibition in vivo at 30 mg/kg in assay [1] was determined as 98%. For the same molecule, in assay [1] (100 mg/kg), the inhibition in vivo at 100 mg/kg stood at 100%.
As to `OC[C@H]1O[C@@H](n2cnc3c(NCC4(c5cccs5)CCC4)ncnc32)[C@H](O)[C@@H]1O` [Example 9, N6-((1-Thien-2-ylcyclobutyl)methyl)adenosine], the IC50 on adenosine A2 receptor was found to be 0.087 µM. Further, in assay [1], the inhibition in vivo at 3 mg/kg amounted to 43%, the inhibition in vivo at 10 mg/kg amounted to 86% and the inhibition in vivo at 30 mg/kg turned out to be 94%.
For `O[C@@H]1[C@H](O)[C@@H](CCl)O[C@H]1n1cnc2c(NCC3(c4ccccc4)CC3)ncnc21` [Example 5, 5'-Deoxy-5'-chloro-N6-((1-phenylcyclopropyl)methyl)adenosine] the same measures were 0.42 µM, 16%, 10% and -4%.
Turning to `OC[C@H]1O[C@@H](n2cnc3c(NCC4(c5ccccc5)CCC4)ncnc32)[C@H](O)[C@@H]1O` [Example 7, N6-((1-Phenylcyclobutyl)methyl)adenosine], at adenosine A2 receptor, the IC50 is 0.15 µM. For the same molecule, in assay [1], the inhibition in vivo at 1 mg/kg is 5%, the inhibition in vivo at 3 mg/kg stood at 21% and the inhibition in vivo at 10 mg/kg worked out at 82%.
